Results on three compounds are retold here after patent US4732977A, “Carbapenem antibiotics” (priority 1986, dated 1988).

Values after ≈ are worked out from the molar mass of the structure shown. Like-named read-outs stand apart in the source and are kept apart here.

The subject of one data set is S. aureus A-9606. Kind of data set: Protective effect in intramuscular treatment of infected mice. The conditions noted are these: Staphylococcus aureus, A9606, im, read-out: PD50/treatment. The class given is in vivo.
The next data set has as its system P. aeruginosa A24081. The description is as above. The class given is in vivo. The conditions noted are these: Pseudomonas aeruginosa, im; mice, i.m.; P. aeruginosa A24081; read-out: PD50/treatment.
For another data set, the system named is K. pneumoniae A9664. Described as above. The class given is in vivo. The conditions noted are these: Klebsiella pneumoniae, im, K. pneumoniae A9664, read-out: PD50/treatment.
The next data set concerns E. coli A-15119. The description is as above. The class given is in vivo. The conditions noted are these: Escherichia coli, A15119, im, read-out: PD50/treatment.
Data set [1] has as its system P. mirabilis A-9900. The description is as above. The conditions noted are these: Proteus mirabilis, im; mice, i.m.; P. mirabilis A9900; read-out: PD50/treatment. The class given is in vivo.
Procedure: (§1) The PD50 (dose in mg/kg required to give protection to 50% of the infected mice) is indicated.
with drugs 0 and 2 hours postinfection.
(§2) The PD50 (dose in mg/kg) required to give protection to 50% of the infected mice is indicated.
In another data set the test system is B. fragilis A22862. Kind of data set: M.I.C., tube dilution. The conditions noted are these: Bacteroides fragilis, overnight incubation at 37° C., Nutrient Broth. The class given is cell-based.
Data set [2] relates to S. aureus A15097 (Meth-res.). Kind of data set: M.I.C., tube dilution. The class given is cell-based. The conditions noted are these: Staphylococcus aureus, overnight incubation at 37° C.
The nature of data set [3]: Blood levels in mice after intramuscular administration.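 Also: compounds dissolved in 0.1 M phosphate buffer at pH 7, data from one experiment using four mice for each compound.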 The conditions noted are these: mouse, blood, im, 20 mg/kg.
Source text: Compounds were solubilized in 0.1 M phosphate buffer pH 7.
a single test; 4 mice used per compound.
Compounds were solubilized in 0.1 M phosphate buffer, pH 7.
on a single test; 4 mice per compound.
The next data set relates to P. aeruginosa A-9843a. Kind of data set: animal or person. The conditions noted are these: Pseudomonas aeruginosa, A9843A, in Mus musculus, im, read-out: PD50/treatment. The class given is in vivo, mice.
The subject of the next data set is P. vulgaris A21559. The experiment in a line: M.I.C., tube dilution. In kind it is cell-based. The conditions noted are these: Proteus vulgaris, A21559, overnight incubation at 37° C., Nutrient Broth; read-out: MIC.
In another data set the test system is K. pneumoniae A20468. Kind of data set: M.I.C., tube dilution. In kind it is cell-based. The conditions noted are these: Klebsiella pneumoniae, A20468, overnight incubation at 37° C., Nutrient Broth; read-out: MIC.
The subject of the next data set is P. aeruginosa A21213. Kind of data set: M.I.C., tube dilution. The class given is cell-based. The conditions noted are these: Pseudomonas aeruginosa, A21213, overnight incubation at 37° C., Nutrient Broth; read-out: MIC.
The test system of the next data set is S. aureus A-9537. Kind of data set: M.I.C., tube dilution. In kind it is cell-based. The conditions noted are these: Staphylococcus aureus, read-out: MIC.
A further data set has as its system E. coli A15119. The experiment in a line: M.I.C., tube dilution. In kind it is cell-based. The conditions noted are these: Escherichia coli, A15119; overnight incubation at 37° C., Nutrient Broth; read-out: MIC.
A further data set relates to S. marcescens A20019. Kind of data set: M.I.C., tube dilution. In kind it is cell-based. The conditions noted are these: Serratia marcescens, A20019; overnight incubation at 37° C., Nutrient Broth; read-out: MIC.
A further data set relates to E. cloacae A-9656. Kind of data set: M.I.C., tube dilution. The class given is cell-based. The conditions noted are these: Enterobacter cloacae, A9656, overnight incubation at 37° C., Nutrient Broth; read-out: MIC.
In another data set the test system is E. coli A20341-1. The experiment in a line: M.I.C., tube dilution. In kind it is cell-based. The conditions noted are these: Escherichia coli, A203411, overnight incubation at 37° C., Nutrient Broth; read-out: MIC.
A further data set has as its system K. pneumoniae A-9664. Kind of data set: M.I.C., tube dilution. The class given is cell-based. The conditions noted are these: Klebsiella pneumoniae, A9664, overnight incubation at 37° C., Nutrient Broth; read-out: MIC.
The subject of data set [4] is P. mirabilis A-9900. Kind of data set: M.I.C., tube dilution. In kind it is cell-based. The conditions noted are these: Proteus mirabilis, A9900, overnight incubation at 37° C., Nutrient Broth; read-out: MIC.
Data set [5] in a line: Half-life (stability) in buffer solution. The class given is physicochemical. The conditions noted are these: 10^-4 M, (phosphate) buffer pH 7.4, 37° C.; read-out: half-life in solution (converted). The protocol: T1/2 =9.8 h (measured at a concentration of 10^-4 M in phosphate buffer pH 7.4 at 36.8° C.).
UV (phosphate buffer, pH 7.4) λmax 294 nm (ε=8,202); T1/2 (phosphate buffer, pH 7.4, M=0.967, T=37° C.) 9.1 h.
(c of 10^-4 M in pH 7.4 phosphate buffer.
.tau.1/2 =20.8 h measured at 37° C. in buffer (pG 7.4) for a concentration of 10^-4 M.
.tau.1/2 =12.5 h measured at 37° C. in buffer pH 7.4 for a concentration of 10^-4 M.
h (measured for a concentration of 10^-4 M at 36.8° C. in buffer pH 7.4).
.tau.1/2 =26.0 h (measured for a concentration of 10^-4 M at 36.8° C. in buffer pH 7.4).
.tau.1/2 =16.6 h (measured at 36.8° C., pH 7.4 for a concentration of 10^-4 M) and (5R, 6S) 6-(1R-hydroxyethyl)7-oxo-3-[1,2,6-trimethylpyridinium-4-yl)methylthio]-1-azabicyclo[3.2.0 hept-2-ene-2-carboxylate, 0.010 g, 0.7%;
.tau.1/2 =11.6 h (measured for a concentration of 10^-4 M at 36.8° C. in buffer pH 7.4).
.tau.1/2 =13.4 h (measured for a concentration of 10^-4 M at 36.8° C. in buffer pH 7.4).
.tau.1/2 =14.4 h (measured for a concentration of 10^-4 M at 36.8° C. in buffer pH 7.4).
T 1/2: 10.2 h (biological buffer).
.tau.1/2 =10.2 h measured at 36.8° C. for a concentration of 10^-4 M in buffer pH 7.4.

The subject of the next data set is S. faecalis A20688. The experiment in a line: M.I.C., tube dilution. The class given is cell-based. The conditions noted are these: Enterococcus faecalis, A20688, overnight incubation at 37° C., Nutrient Broth; read-out: MIC.
For a further data set, the system named is P. morganii A15153. Kind of data set: M.I.C., tube dilution. The class given is cell-based. The conditions noted are these: Morganella morganii, A15153, printed M. morganii A15153; overnight incubation at 37° C.; read-out: MIC.
A further data set deals with E. cloacae A-9659. Kind of data set: M.I.C., tube dilution. The class given is cell-based. The conditions noted are these: Enterobacter cloacae, A9659; overnight incubation at 37° C., Nutrient Broth; read-out: MIC.
The next data set has as its system P. rettgeri A22424. The experiment in a line: M.I.C., tube dilution. The class given is cell-based. The conditions noted are these: Providencia rettgeri, A22424; overnight incubation at 37° C., Nutrient Broth; read-out: MIC.
The subject of data set [6] is S. aureus A-9606 (Pen-res.). The experiment in a line: M.I.C., tube dilution. In kind it is cell-based. The conditions noted are these: Staphylococcus aureus, overnight incubation at 37° C.

Procedure for E. coli A-15119: as §1
with drugs 0 and 2 hours postinfection.
as §2
Source text for K. pneumoniae A9664: as §2
Procedure for P. aeruginosa A-9843a: as §1
with drugs 0 and 2 hours postinfection.
as §2
Source text for P. aeruginosa A24081: as §2

As a reminder, the MIC is the smallest concentration in the dilution series that meets the test's criterion for growth inhibition. Broadly, the AUC is the area under the concentration-time curve, a measure of exposure. One may read the Cmax as the peak of the concentration-time curve. By half-life is commonly meant how long it takes for the measured level to halve. As for `Cc1ccc[n+](C)c1CSC1=C(C(=O)[O-])N2C(=O)[C@H]([C@@H](C)O)[C@H]2C1` [Example 7, 3-(N-Methyl-3-methylpyridine-2-methanethio)-6α-[1-(R)-hydroxyethyl]-7-oxo-1-azabicyclo(3.2.0)hept-2-ene-2-carboxylate], the ED50 in the data set on S. aureus A-9606 is 0.2 mg/kg; with P. aeruginosa A24081 it was 0.1 mg/kg; in the data set on K. pneumoniae A9664, 1 mg/kg; in the data set on E. coli A-15119, 0.2 mg/kg; in the data set with P. mirabilis A-9900 [1], 2.4 mg/kg; in the data set with P. aeruginosa A-9843a it was 0.2 mg/kg. For the same compound, the MIC against B. fragilis A22862 came out at 0.016 µg/mL (≈ 0.0459 µM); in [2] it was 2 µg/mL (≈ 5.74 µM); with P. vulgaris A21559, 0.008 µg/mL (≈ 0.023 µM). Further, the AUC in data set [3] came out at 11800 ng·h/mL. The compound also displayed a Cmax in [3] of 19200 ng/mL. In data set [3], the half-life was found to be 11 min.

Regarding `C[C@@H](O)[C@H]1C(=O)N2C(C(=O)[O-])=C(SCc3n[n+](C)nn3C)C[C@H]12` [Example 20, (1'R,5R,6S) 3-[(1,3-dimethyl-5-tetrazolium)-methylthio]-6-(1-hydroxyethyl)-7-oxo-1-azabicyclo[3.2.0]hept-2-ene-2-carboxylate], the MIC with K. pneumoniae A20468 was determined as 4 µg/mL (≈ 11.8 µM); with P. aeruginosa A21213, 16 µg/mL (≈ 47.1 µM); in the data set on S. aureus A-9537 (A9537, overnight incubation at 37° C., Nutrient Broth) it was 0.5 µg/mL (≈ 1.47 µM); in the data set with E. coli A15119 it was 1 µg/mL (≈ 2.95 µM); with S. marcescens A20019, 4 µg/mL (≈ 11.8 µM); in the data set on E. cloacae A-9656, 16 µg/mL (≈ 47.1 µM). Moreover, the MIC in the data set on E. coli A20341-1 came out at 2 µg/mL (≈ 5.89 µM); with K. pneumoniae A-9664, 4 µg/mL (≈ 11.8 µM); in the data set with P. mirabilis A-9900 [4], 4 µg/mL (≈ 11.8 µM); with S. faecalis A20688 it was 16 µg/mL (≈ 47.1 µM); in the data set on P. vulgaris A21559, 4 µg/mL (≈ 11.8 µM). For the same compound, in data set [3], the AUC turned out to be 15600 ng·h/mL. This compound also gave a Cmax in data set [3] of 28400 ng/mL. Also, the half-life in data set [3] worked out at 14 min. In [5], the half-life at 100 µM is 630 min.

For the compound `C[C@@H](O)[C@H]1C(=O)N2C(C(=O)[O-])=C(SCc3cn(C)n[n+]3CC(=O)O)C[C@H]12` [Example 17, Potassium 3-[5-(1-carboxylatomethyl-3-methyl-1,2,3-triazolium)-methanethio]-6α-[1-(R)-hydroxyethyl]-7-oxo-1-azabicyclo[3.2.0]hept-2-ene-2-carboxylate], the MIC is 0.5 µg/mL with K. pneumoniae A20468; 16 µg/mL in the data set on P. aeruginosa A21213; 0.5 µg/mL in the data set with P. morganii A15153; 1 µg/mL with S. aureus A-9537 (A9537, +50% serum); 2 µg/mL in the data set with E. cloacae A-9659; 0.6 µg/mL in the data set on E. coli A15119. Moreover, the MIC in the data set on E. cloacae A-9656 is 2 µg/mL; with E. coli A20341-1, 0.6 µg/mL; with S. faecalis A20688, 4 µg/mL; in the data set on P. rettgeri A22424, 2 µg/mL; in data set [6], 0.5 µg/mL; in the data set with P. vulgaris A21559, 0.13 µg/mL. This compound also yielded an AUC in data set [3] of 3400 ng·h/mL. This compound also had a Cmax in [3] of 11000 ng/mL. The compound further returned a half-life in data set [3] of 8 min.
